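How tested: cells in 96-well plates exposed to compound for 48 hours at five concentrations. Abbreviation: GI50, concentration required for 50% inhibition of growth.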 Activity calls are given as the source filed them. Cut-off read from the data, not from the text of the source: active = GI50 up to about 1.1 µM and inactive = higher.
Experiments:
Experiment in all cases: DTP human tumour cell line panel, 48 h
HL-60 = tested on: HL-60
OVCAR-8 = tested on: OVCAR-8
OVCAR-5 = tested on: OVCAR-5
SK-OV-3 = tested on: SK-OV-3
OVCAR-3 = tested on: OVCAR-3
HCT-116 = tested on: HCT-116
A549 = tested on: A549
HT-29 = tested on: HT-29
OVCAR-4 = tested on: OVCAR-4
M14 = tested on: M14
A498 = tested on: A498
KM12 = tested on: KM12
SNB-19 = tested on: SNB-19
NCI-H460 = tested on: NCI-H460
SK-MEL-2 = tested on: SK-MEL-2
IGROV-1 = tested on: IGROV-1
SR = tested on: SR

Measured: GI50

Nc1nc(OCc2ccccc2)c2nc[nH]c2n1 [6-O-BENZYLGUANINE]
inactive: HL-60 45.7 µM | OVCAR-8 112 µM | OVCAR-5 80 µM | SK-OV-3 75.7 µM | OVCAR-3 90.2 µM | HCT-116 59.6 µM | A549 73.8 µM | HT-29 87.3 µM | OVCAR-4 69.8 µM | M14 75.9 µM | A498 57.8 µM | KM12 98.6 µM | SNB-19 129 µM | NCI-H460 67.6 µM | SK-MEL-2 68.9 µM | IGROV-1 64.6 µM

C(=C1/CCCCC([n+]2ccccc2)=N1)/c1ccccc1
inactive: HL-60 > 100 µM | OVCAR-8 > 100 µM | SR > 100 µM | OVCAR-5 > 100 µM | SK-OV-3 > 100 µM | OVCAR-3 > 100 µM | HCT-116 > 100 µM | A549 > 100 µM | HT-29 > 100 µM | OVCAR-4 > 100 µM | M14 > 100 µM | NCI-H460 > 100 µM | SK-MEL-2 > 100 µM

COc1ccc2[nH]c3c(c2c1)CCN(C)CC3
inactive: HL-60 71.8 µM | OVCAR-8 > 100 µM | OVCAR-5 > 100 µM | SK-OV-3 > 100 µM | OVCAR-3 > 100 µM | HCT-116 > 100 µM | A549 > 100 µM | HT-29 > 100 µM | OVCAR-4 45.3 µM | M14 > 100 µM | A498 > 100 µM | KM12 > 100 µM | SNB-19 > 100 µM | NCI-H460 > 100 µM | SK-MEL-2 > 100 µM | IGROV-1 > 100 µM

O=[N+]([O-])c1ccc(C[P+](c2ccccc2)(c2ccccc2)c2ccccc2)cc1
inactive: HL-60 27.2 µM | OVCAR-8 73.1 µM | SR 38.4 µM | OVCAR-5 > 100 µM | SK-OV-3 > 100 µM | OVCAR-3 42.8 µM | HCT-116 36.5 µM | A549 > 100 µM | HT-29 32.9 µM | M14 56.9 µM | A498 > 100 µM | KM12 52.5 µM | SNB-19 > 100 µM | NCI-H460 71.3 µM | SK-MEL-2 25.4 µM | IGROV-1 25.4 µM

CC#CC#C/C=C1\C=CC2(OC=CC2O)O1 (stereo not given)
inactive: HL-60 > 14.1 µM | OVCAR-8 14.3 µM | SR > 12.7 µM | OVCAR-5 4.23 µM | SK-OV-3 > 23.3 µM | OVCAR-3 7.52 µM | HCT-116 8.04 µM | A549 13.1 µM | HT-29 7.91 µM | OVCAR-4 8.26 µM | M14 > 17.8 µM | KM12 3.32 µM | SNB-19 > 23.3 µM | NCI-H460 > 23.3 µM | SK-MEL-2 > 17.8 µM | IGROV-1 > 16.7 µM

O=C(O)c1cc(=O)c2[nH]c3ccccc3c2s1
inactive: HL-60 > 100 µM | OVCAR-8 > 100 µM | OVCAR-5 > 100 µM | SK-OV-3 > 100 µM | OVCAR-3 > 100 µM | A549 > 100 µM | OVCAR-4 > 100 µM | M14 > 100 µM | KM12 > 100 µM | SNB-19 > 100 µM | NCI-H460 > 100 µM | SK-MEL-2 > 100 µM | IGROV-1 > 100 µM

C1OC1C1CO1 (stereo not given)
inactive: HL-60 3.14 µM | OVCAR-8 > 100 µM | SR 3.88 µM | OVCAR-5 > 100 µM | SK-OV-3 57.8 µM | OVCAR-3 39.7 µM | HCT-116 95.1 µM | A549 30.1 µM | HT-29 > 100 µM | OVCAR-4 > 100 µM | M14 > 100 µM | KM12 > 100 µM | SNB-19 > 100 µM | SK-MEL-2 > 100 µM | IGROV-1 > 100 µM

O=C1OC(=O)C2C1C1(c3ccccc3)OC2(c2ccccc2)c2c(Br)c(Br)c(Br)c(Br)c21 (stereo not given)
inactive: HL-60 > 100 µM | OVCAR-8 > 100 µM | OVCAR-5 > 100 µM | SK-OV-3 28.7 µM | OVCAR-3 > 100 µM | HCT-116 > 100 µM | A549 > 100 µM | HT-29 > 100 µM | OVCAR-4 > 100 µM | M14 > 100 µM | A498 > 100 µM | KM12 > 100 µM | SNB-19 > 100 µM | NCI-H460 > 100 µM | SK-MEL-2 > 100 µM | IGROV-1 > 100 µM

Cc1cc2c3ccccc3n3c2c2c1OC1(C)CCC(C2C1)C3(C)C (stereo not given)
inactive: HL-60 > 25 µM | OVCAR-8 > 25 µM | SR > 25 µM | OVCAR-5 > 25 µM | SK-OV-3 > 25 µM | OVCAR-3 > 25 µM | HCT-116 > 25 µM | A549 > 25 µM | HT-29 > 25 µM | OVCAR-4 > 25 µM | M14 > 25 µM | KM12 > 25 µM | SNB-19 > 25 µM | NCI-H460 > 25 µM | SK-MEL-2 > 25 µM | IGROV-1 > 25 µM

O=C1OC(c2ccccc2)=N/C1=C/NC(CO)C(=O)O (stereo not given)
inactive: HL-60 > 100 µM | OVCAR-8 > 100 µM | OVCAR-5 > 100 µM | SK-OV-3 > 100 µM | OVCAR-3 > 100 µM | HCT-116 > 100 µM | A549 > 100 µM | HT-29 > 100 µM | OVCAR-4 > 100 µM | M14 > 100 µM | A498 > 100 µM | KM12 > 100 µM | SNB-19 48.9 µM | NCI-H460 > 100 µM | SK-MEL-2 > 100 µM | IGROV-1 67.1 µM

CCOCc1cc(=O)c2c(OC)cc3c(c2o1)CCC(C)(C)O3
inactive: HL-60 > 100 µM | OVCAR-8 > 100 µM | SR > 100 µM | OVCAR-5 > 100 µM | SK-OV-3 > 100 µM | OVCAR-3 > 100 µM | HCT-116 > 100 µM | A549 > 100 µM | HT-29 > 100 µM | OVCAR-4 > 100 µM | M14 > 100 µM | KM12 > 100 µM | NCI-H460 > 100 µM | SK-MEL-2 > 100 µM | IGROV-1 > 100 µM

Clc1ccc2nc(-c3ccccc3)nc(Cl)c2c1
inactive: HL-60 12.5 µM | OVCAR-8 37 µM | SR > 100 µM | OVCAR-5 > 100 µM | SK-OV-3 12.3 µM | OVCAR-3 49.2 µM | HCT-116 73.6 µM | A549 50.6 µM | HT-29 > 100 µM | A498 > 100 µM | KM12 > 100 µM | SNB-19 69.2 µM | NCI-H460 87.9 µM | SK-MEL-2 45.6 µM | IGROV-1 > 100 µM

N#Cc1cc(NC(=O)c2ccccc2)c(=O)n2c1[nH]c1ccccc12
inactive: HL-60 26.4 µM | OVCAR-8 38.3 µM | SK-OV-3 28.8 µM | OVCAR-3 28.2 µM | HCT-116 21.4 µM | A549 24.5 µM | HT-29 48.5 µM | OVCAR-4 27 µM | M14 27.3 µM | A498 22.7 µM | KM12 43.9 µM | SNB-19 23.4 µM | NCI-H460 33 µM | SK-MEL-2 32.1 µM | IGROV-1 24.5 µM

Nc1cc(=O)n(-c2ccccc2)c(=S)n1-c1ccccc1
inactive: OVCAR-8 > 100 µM | OVCAR-5 > 100 µM | SK-OV-3 > 100 µM | OVCAR-3 > 100 µM | HCT-116 > 100 µM | A549 > 100 µM | HT-29 > 100 µM | M14 > 100 µM | A498 > 100 µM | KM12 > 100 µM | SNB-19 > 100 µM | NCI-H460 > 100 µM | SK-MEL-2 > 100 µM | IGROV-1 > 100 µM

COCc1c(CO)cnc(C)c1OC1OC(CO)C(O)C(O)C1O (stereo not given)
inactive: OVCAR-8 > 100 µM | SR > 100 µM | OVCAR-5 > 100 µM | SK-OV-3 > 100 µM | OVCAR-3 > 100 µM | HCT-116 > 100 µM | A549 > 100 µM | HT-29 > 100 µM | OVCAR-4 > 100 µM | M14 > 100 µM | A498 > 100 µM | KM12 > 100 µM | SNB-19 > 100 µM | NCI-H460 > 100 µM | SK-MEL-2 > 100 µM | IGROV-1 > 100 µM

Cc1ccc(-n2c3nc(=O)n(C)c(=O)c-3nc3ccccc32)cc1
inactive: HL-60 11.1 µM | OVCAR-8 9.2 µM | OVCAR-5 23.8 µM | SK-OV-3 95.7 µM | OVCAR-3 3.24 µM | HCT-116 19.1 µM | A549 6.43 µM | HT-29 3.54 µM | OVCAR-4 14.5 µM | M14 12.8 µM | A498 26.7 µM | KM12 17.3 µM | SNB-19 12.9 µM | NCI-H460 3.33 µM | SK-MEL-2 14.6 µM | IGROV-1 31.6 µM

O=c1[nH]c(Br)nc2c(Br)c[nH]c12
inactive: HL-60 > 100 µM | OVCAR-8 > 100 µM | OVCAR-5 > 100 µM | SK-OV-3 > 100 µM | OVCAR-3 > 100 µM | HCT-116 > 100 µM | A549 > 100 µM | HT-29 > 100 µM | OVCAR-4 > 100 µM | M14 > 100 µM | A498 > 100 µM | KM12 > 100 µM | SNB-19 > 100 µM | NCI-H460 > 100 µM | SK-MEL-2 > 100 µM | IGROV-1 > 100 µM

Cc1ccc(S(=O)(=O)Nc2ccccc2C(C)(C)C)cc1
inactive: HL-60 16.8 µM | OVCAR-8 29.6 µM | OVCAR-5 34.6 µM | SK-OV-3 30.5 µM | OVCAR-3 17.2 µM | HCT-116 15.2 µM | A549 27.7 µM | HT-29 16.2 µM | OVCAR-4 25.6 µM | M14 > 10 µM | A498 24 µM | KM12 17.2 µM | NCI-H460 18.6 µM | SK-MEL-2 26.7 µM | IGROV-1 30.7 µM
